Data reported in patent publication US20100048511A1, “COMPLEX FORMULATION FOR PREVENTING OR TREATING OSTEOPOROSIS WHICH COMPRISES SOLID DISPERSION OF VITAMIN D OR ITS DERIVATIVE AND BISPHOSPHONATE” (priority 2006, published 2010).

Experiments:
[1] = Stability test of the solid dispersion comprising vitamin D (cholecalciferol content by HPLC, 60° C. dried oven); type: physicochemical
Method: The time-dependent change of the cholecalciferol content of each test material was analyzed using the solid dispersions prepared in Comparative Example 2 (0.07 mg of cholecalciferol) and Examples 1 to 4 as test materials, during the period of incubating the test materials in a 60° C. dried oven.
Each test material was pretreated as follows, before the analysis of cholecalciferol.
Each test material was taken in the amount corresponding to about 28 mg cholecalciferol and placed in a 50 ml flask, 5 ml of 0.01 M HCl was added thereto, the mixture was ultrasonicated for 3 minutes, and the flask was filled with ethanol. 15 ml of the resulting solution was mixed with 5 ml of purified water and 20 ml of n-hexane for 5 minutes, and centrifuged at 2000 rpm for 5 minutes. 10 ml of the supernatant was harvested, evaporated under a reduced pressure, and 2 ml of n-hexane was added thereto. The cholecalciferol content of each test material was analyzed by HPLC under the following conditions. The results are shown in Table 7. • Column: silica column (5 μm, 4.6 mm×250 mm) • Mobile phase: (chloroform: n-hexane: tetrahydrofuran=650:350:10 (v/v)) • Injecting volume: 100 μl • Flow rate: 1.0 ml/min • Detector: ultraviolet spectrophotometer (wavelength: 254 nm; L-7400, HITACHI, Japan)

[2] = preserved at 40° C. for 4 days; cited from earlier work

| Compound | cholecalciferol content ([1]; 2 weeks) [%] | cholecalciferol content ([1]; 4 weeks) [%] | cholecalciferol content ([1]; incubation time 0) [%] | content of vitamin D3 in the formulation, of the original content [2] |
| --- | --- | --- | --- | --- |
| C=C1CC[C@H](O)C/C1=C/C=C1\CCC[C@]2(C)[C@@H]([C@H](C)CCCC(C)C)CC[C@@H]12 [Comparative Example 2, cholecalciferol] | 3.3 | 0.0 | 100 |  |
| C=C1CC[C@H](O)C/C1=C/C=C1\CCC[C@]2(C)[C@@H]([C@H](C)CCCC(C)C)CC[C@@H]12 [vitamin D3, cholecalciferol] |  |  |  | about 86.3% |
